What all share (format): in vivo, male Sprague Dawley rats
The subject of experiment [1] is blood glucose level in non-diabetic rats. The experiment can be described thus: Hypoglycemic activity in non-diabetic rats (screening test). As to conditions: Rattus norvegicus, 100 mg/kg oral, fasted, glucose s.c. On the procedure: (§1) These new compounds of the present invention are very useful as anti-diabetic agents, which is supported from the following pharmacological studies. The animals used for the pharmacological studies were male Sprague Dawley rats exept otherwise noted. 1. Hypoglycemic activity in non-diabetic rats (screening test)
The rats were fasted for 16 - 18 hours prior to the experiment and those weighing 140 - 160g were used. Glucose solution (100 mg/0.5ml/150g body weight) was subcutaneously injected on the fasted rats. Each of the present compounds was suspended in 1% carboxymethyl cellulose (CMC), and about 0.5 ml of the suspension (corresponding to 100 mg/kg of the compound per body weight) was orally administered. Blood samples were taken from the tail vein of the rats at 2 and 5 hours after the administration, and the blood glucose level in each sample (0.1 ml) was determined by the micro method of Momose as described in SOGO-RINSHO 11, 120 (1962).
3,5-Dinitrophthalic acid is reduced with glucose to stable orange-red azo-compound via red hydroxyaminophthalic acid in basic media.
To 0.5ml of water was added 0.1ml of blood and shaken to hemolyze, and to which was added 1.7ml of 0.06N barium hydroxide solution. To the resulting dark-brown solution was added 1.7ml of zinc sulfate solution (1g/dl), and which was shaken thoroughly and allowed to stand for 2-3min followed by centrifugation.
One ml of 3,5-dinitrophthalic acid solution (1.5g of monopyridinium-3,5-dinitrophthalate in 500ml of water) and 1 ml of sodium carbonatesodium hyposulfite solution (125-25g/500ml) were added to 2ml of spernatant solution. The solution was heated at 100° C for 10 min. After cooling with running water for 3 min, water was added to make 20ml.
To 2ml of water were added 3,5-dinitrophthalic acid solution and an alkaline solution, and the solution was treated as mentioned above.
As the absorbance of reference at 450nm was adjusted to 0, the absorbance of sample corresponded to blood glucose level.

Experiment [2] has as its system blood glucose level in alloxan diabetic rats. The experiment can be described thus: Blood glucose level in alloxan diabetic rats loaded with much quantity of glucose. As to conditions: alloxan diabetic rats; dose not stated. On the procedure: as §1
Respective dose of the compound 4 (12.5 and 100 mg/kg) together with 2g/kg of glucose was orally administered to the alloxan diabetic rats.

The subject of experiment [3] is serum FFA level in fasted rats. The experiment can be described thus: Time course of the serum FFA level in fasted rats (FIG. 1). The settings on record: 50 mg/kg oral; 0.5, 1, 2, 4 and 6 hours. On the procedure: as §1
Further experiment was performed to clarify the effectiveness of the compound 4 on the serum FFA. Blood samples were taken at 0.5, 1, 2, 4 and 6 hours after an oral administration of 50 mg/kg to the fasted rats and the serum FFA levels were determined.

The subject of experiment [4] is blood glucose level in non-diabetic rats. The experiment can be described thus: Blood glucose level in non-diabetic rats at 90 minutes. The settings on record: 100 mg/kg oral. On the procedure:
as §1
(§2) The rats were fasted for 16-18 hours, and those weighing 130-160g were used. The compound 4 suspended in 1% CMC was orally administered to the fasted rats, and at 90 minutes after administration blood was drawn from the […] vena cava under anesthesia with sodium pentobarbital. The blood glucose level was determined by the method of Momose, and the serum FFA level was determined by the method of Itaya and Ui as described in J. Lipid Res., 6, 16 (1965), respectively.

For experiment [5], the system named is blood glucose level in alloxan diabetic rats. The experiment can be described thus: Hypoglycemic effect in alloxan diabetic rats. The settings on record: ± SE. On the procedure:
as §1
(§3) Alloxan diabetic rats were obtained as follows. Namely, 2.5% fresh solution of alloxan (50mg/kg) was injected into the tail vein of male rats, and the rats were daily injected with insulin (1-4 units/day) from the 7th day after the administration of alloxan. The alloxan diabetic rats which were survived for more than 2 months with daily injection of insulin were used. The alloxan diabetic rats were fasted for 24 hours after the last treatment with insulin, and then the compound of the present invention was orally administered. The blood glucose levels were determined by the micro method of Momose before and 2, 4 and 6 hours after the administration.

In experiment [6] the test system is serum cholesterol level in alloxan diabetic rats. The experiment can be described thus: Serum cholesterol level in alloxan diabetic rats, 10 consecutive days. The settings on record: 100 mg/kg, 10 consecutive days. The procedure: as §1, §3
(§4) The alloxan diabetic rats which were prepared and then preserved for 6 months with insulin as described in the previous experiment were used.

The subject of experiment [7] is blood glucose level in streptozotocin-diabetic rats. The experiment can be described thus: Hypoglycemic effect in streptozotocin-diabetic rats. As to conditions: Rattus norvegicus; 100 mg/kg oral; 4 hours. On the procedure:
The animals used for the pharmacological studies were male Sprague Dawley rats exept otherwise noted. 1. […]
The rats were fasted for 16 hours, and then streptozotocin was intravenously injected in a dose of 65 mg/kg. Oral administration of the compound 4 was performed at 48 hours after the injection of streptozotocin. Blood samples were taken at 4 hours after the oral administration, and the blood glucose level in each sample was determined.

The test system of experiment [8] is serum FFA level in alloxan diabetic rats. The experiment can be described thus: Serum FFA level in alloxan diabetic rats, 10 consecutive days. The settings on record: 100 mg/kg, 10 consecutive days. The procedure:
as §1, §3, §4

For experiment [9], the system named is serum FFA level in non-diabetic rats. The experiment can be described thus: Serum free fatty acids (FFA) level in non-diabetic rats at 90 minutes. As to conditions: 100 mg/kg oral. On the procedure:
as §1, §2

Setting [10] is: 2 hours, read-out: Reduction % of blood glucose from control after 2 hours.
Setting [11] is: 5 hours, read-out: Reduction % of blood glucose from control after 5 hours.

This note sets out measurements from patent US4007201A, “Novel pyrazole derivatives” (Kyorin Pharmaceutical Co. Ltd., priority 1975, dated 1977).

SMILES strings stand for the structures. Where two headings read alike, the source gives them in different places.

What is called inhibition is the drop in the measured response relative to a control, in per cent.

In the case of `Cc1cc(C)n(C(=O)CCNS(=O)(=O)c2ccc(Cl)cc2)n1` [Example 8, 1-[N-(p-chlorobenzenesulfonyl)-β-alanyl]-3,5-dimethylpyrazole], the inhibition in vivo at 100 mg/kg in experiment [1] (setting [10]) came to 42.5%; in experiment [1] (setting [11]), 22.1%.

For the compound `Cc1cc(C)n(C(=O)[C@H](Cc2ccccc2)NS(=O)(=O)c2ccc(Cl)cc2)n1` [Example 14, 1-[N-(p-chlorobenzenesulfonyl)-phenylalanyl]-3,5-dimethylpyrazole], the inhibition in vivo at 100 mg/kg in [1] (setting [10]) is 43.6%; in [1] (setting [11]), -0.9%.

For the compound `Cc1cc(C)n(C(=O)CCNS(=O)(=O)c2ccc(CCNC(=O)c3cnccn3)cc2)n1` [Example 3, 1-≡N-≡ p-[2-(2-pyrazinecarbonyl-amino)ethyl]benzenesulfonyl.quadrature. -β-alanyl.quadrature. -3,5-dimethylpyrazole], the inhibition in vivo at 100 mg/kg in experiment [1] (setting [10]) is 41.7%; in experiment [1] (setting [11]), 25.7%.

For the compound `Cc1cc(C)n(C(=O)C(NS(=O)(=O)c2ccc(Cl)cc2)c2ccccc2)n1` (stereo not drawn) [Example 12, 1-[N-(p-chlorobenzenesulfonyl)-α-phenylglycyl]-3,5-dimethylpyrazole], the figures for the inhibition in vivo at 100 mg/kg in [1] (setting [10]) and in [1] (setting [11]) were 32.6% and 4%, respectively.

As for `COCCOc1cnc(NS(=O)(=O)c2ccccc2)nc1` [sodium glymidine], in experiment [2], the “Hypoglycemic effect (in words)” value is on record as “no hypoglycemic effect”. For the same compound, the “Effect on serum FFA level (in words, FIG. 1)” value in experiment [3] is given as “only a slight suppression”.

With `CCOC(=O)NCCc1ccc(S(=O)(=O)NCC(=O)n2nc(C)cc2C)cc1` [Example 6, 1-≡N-[p-(2-ethoxycarbonylaminoethyl)benzenesulfonyl]-glycyl.quadrature.-3,5-dimethylpyrazole], the inhibition in vivo at 100 mg/kg in [1] (setting [10]) stood at 33.3%; in experiment [1] (setting [11]) it was 22.1%.

On to `COc1ccc(Cl)cc1C(=O)NCCc1ccc(S(=O)(=O)NCC(=O)n2nc(C)cc2C)cc1` [Example 9, 1-≡N-≡p-[2-(2-methoxy-5-chlorobenzoylamino)-ethyl]benzenesulfonyl.quadrature.glycyl.quadrature.-3,5-dimethyl-pyrazole], for which the inhibition in vivo at 100 mg/kg in experiment [1] (setting [10]) came to 48.1%; in [1] (setting [11]), 17.7%.

In the case of `CC(=O)NCCc1ccc(S(=O)(=O)NCCC(=O)n2nc(C)cc2C)cc1` [Example 2, 1-≡N-[p-(2-acetaminoethyl)benzene-sulfonyl]-β-alanyl.quadrature. -3,5-dimethylpryrazole], the inhibition in vivo at 100 mg/kg in experiment [1] (setting [10]) was found to be 37.1%; in [1] (setting [11]), 26%.

With `CC(=O)NCCc1ccc(S(=O)(=O)NCC(=O)n2nc(C)cc2C)cc1` [Example 5, 1-≡N-[p-(2-acetaminoethyl)-benzenesulfonyl]-glycyl.quadrature.-3,5-dimethylpyrazole], the inhibition in vivo at 100 mg/kg turned out to be 35.2% in experiment [1] (setting [10]) and 34.1% in [1] (setting [11]).

Consider `Cc1cc(C)n(C(=O)CNS(=O)(=O)c2ccc(CC(C)C)cc2)n1` [Example 11, 1-[N-(p-isobutylbenzenesulfonyl)-glycyl]-3,5-dimethylpyrazole], for which the inhibition in vivo at 100 mg/kg in experiment [1] (setting [10]) was found to be 37.9%; in experiment [1] (setting [11]), 1.4%.

For `Cc1cc(C)n(C(=O)[C@H](C)NS(=O)(=O)c2ccc(Cl)cc2)n1` [Example 13, 1-[N-(p-chlorobenzenesulfonyl)-alanyl]-3,5-dimethylpyrazole], the inhibition in vivo at 100 mg/kg in experiment [1] (setting [10]) worked out at 51.3%; in experiment [1] (setting [11]), 5%.

In experiment [4], `[H]/N=C(/N)N/C(=N/[H])NCCc1ccccc1` [Phenformin, phenethylbiguanide, reference compound] gave a Blood glucose level of 103.0 ± 6.9 mg/dL. The “Blood glucose before administration” value in experiment [5] (100 mg/kg oral group, before administration (baseline)) stood at 368.7 ± 31.3 mg%. In addition, in [5] (100 mg/kg oral, 2 hours), the “Blood glucose 2 hours” value turned out to be 262.2 ± 43.3 mg%. For the same compound, the “Blood glucose 4 hours” value in experiment [5] (100 mg/kg oral, 4 hours) stood at 196.0 ± 48.9 mg%. Besides, the “Blood glucose 6 hours” value in experiment [5] (100 mg/kg oral, 6 hours) amounted to 133.7 ± 29.3 mg%. The compound further gave a Cholesterol in experiment [6] of 63.5 ± 5.4 mg/dl serum. This compound also came in with an inhibition at 100 mg/kg in experiment [7] of 79.9 ± 2.9%. This compound showed an FFA in experiment [8] of 89.9 ± 16.4 μ Eq/dl serum. For the same compound, in experiment [9], the “Serum FFA level” value was determined as 59.8 ± 18.0 μ Eq/dl.

With `Cc1cc(C)n(C(=O)CCNS(=O)(=O)c2ccccc2)n1` [Example 1, 1-(N-benzenesulfonyl-β-alanyl)-3,5-dimethylpyrazole], the results for the inhibition in vivo at 100 mg/kg in experiment [1] (setting [10]) and in experiment [1] (setting [11]) were 22.1% and 19.8%, respectively.

For the compound `Cc1cc(C)n(C(=O)CNS(=O)(=O)c2ccc(C3CCCCC3)cc2)n1` [Example 10, 1-[N-(p-cyclohexylbenzenesulfonyl)-glycyl]-3,5-dimethylpyrazole], the inhibition in vivo at 100 mg/kg in experiment [1] (setting [10]) worked out at 42.1%; in experiment [1] (setting [11]) it was 3.3%.

On to `CCOC(=O)NCCc1ccc(S(=O)(=O)NCCC(=O)n2nc(C)cc2C)cc1` [Example 7, 1-≡N-[p-(2-ethoxycarbonylaminoethyl)benzenesulfonyl]-β -alanyl.qu adrature.-3,5-dimethylpyrazole], for which the figures for the inhibition in vivo at 100 mg/kg in [1] (setting [10]) and in experiment [1] (setting [11]) were 41.6% and 23.3%, respectively.
